Our source for the Km values is PMC12143591, “Unlocking the serine mischarging paradox and inhibiting lactyltransferase activity of AlaRS by a single-point mutation” (Nucleic Acids Research, 2025).

What all share (test): PPi release assay (pyrophosphatase, BIOMOL Green, […] nm)
Holding throughout (format): biochemical

The target in one assay is T1, AlaRS429 (Methylomonas sp. DH-1, UniProt Z9JP01Z3Z1, L219M, form not given).
T1 construct: residues 1-429 (aminoacylation domain, no editing domain), non-cleavable C-terminal His6 tag, synthetic gene in pET28b(+), E. coli BL21(DE3)
The settings on record: 8 uM tRNA-Ala, 200 uM ATP, 40 mM MgCl2, 1 mM DTT, pH 7.5, 37 °C; read-out: Alanine / K m.

Assay [1] addresses T2, AlaRS (AlaRS^WT) (Methylomonas sp. DH-1, UniProt Z9JP01Z3Z1, V207A/L222M, form not given).
T2 construct: full-length, pET-28b(+) (BamHI/NotI), Ni-NTA purified from E. coli Rosetta-gami2(DE3)pLysS; tag removal not mentioned
The settings on record: 8 uM tRNA-Ala, 200 uM ATP, 40 mM MgCl2, 1 mM DTT, pH 7.5, 37 °C; read-out: Alanine / K m.

Assay [2] concerns the target T3, AlaRS (AlaRS^WT) (Methylomonas sp. DH-1, UniProt Z9JP01Z3Z1, L219F, form not given).
T3 construct: full-length, pET-28b(+) (BamHI/NotI), Ni-NTA purified from E. coli Rosetta-gami2(DE3)pLysS; tag removal not mentioned
The settings on record: 8 uM tRNA-Ala, 200 uM ATP, 40 mM MgCl2, 1 mM DTT, pH 7.5, 37 °C; read-out: Alanine / K m.

Assay [3] addresses T4, AlaRS (AlaRS^WT) (Methylomonas sp. DH-1, UniProt Z9JP01Z3Z1, L219M, form not given).
T4 construct: full-length, pET-28b(+) (BamHI/NotI), Ni-NTA purified from E. coli Rosetta-gami2(DE3)pLysS; tag removal not mentioned
The note with it: 8 uM tRNA-Ala, 200 uM ATP, 40 mM MgCl2, 1 mM DTT, pH 7.5, 37 °C.

For assay [4], the target named is T5, AlaRS (AlaRS^WT) (Methylomonas sp. DH-1, UniProt Z9JP01Z3Z1, L219A, form not given).
T5 construct: full-length, pET-28b(+) (BamHI/NotI), Ni-NTA purified from E. coli Rosetta-gami2(DE3)pLysS; tag removal not mentioned
The note with it: 8 uM tRNA-Ala, 200 uM ATP, 40 mM MgCl2, 1 mM DTT, pH 7.5, 37 °C; read-out: Alanine / K m.

Like-named read-outs stand apart in the source and are kept apart here.

For the compound `C[C@H](N)C(=O)O` [Ala], the Km on AlaRS429 turned out to be 3 ± 1 µM; on AlaRS (AlaRS^WT) [1], 145 ± 39 µM; on AlaRS (AlaRS^WT) [2], 7 ± 3 µM; at AlaRS (AlaRS^WT) [3] (read-out: Alanine / K m), 9 ± 1 µM; on AlaRS (AlaRS^WT) [4], 9 ± 6 µM.

On to `NCC(=O)O` [Gly], for which the Km on AlaRS (AlaRS^WT) [3] (read-out: Glycine / K m) turned out to be 7910 ± 3280 µM.
